Assays:
TmRhu-1PA = biological target: T1, TmRhu-1PA (Thermotoga maritima, UniProt Q9X0G1); test: aldol addition, HPLC and NMR of products; format: biochemical; details: acceptor; co-substrate DHAP; 20 mM phosphate pH 6.8, 45 °C
T1 construct: gene TM_1072; recombinant, cloned, expressed and purified as in earlier work (heat step at 80 °C, cobalt salts present)
T1 sequence (Q9X0G1 1-236): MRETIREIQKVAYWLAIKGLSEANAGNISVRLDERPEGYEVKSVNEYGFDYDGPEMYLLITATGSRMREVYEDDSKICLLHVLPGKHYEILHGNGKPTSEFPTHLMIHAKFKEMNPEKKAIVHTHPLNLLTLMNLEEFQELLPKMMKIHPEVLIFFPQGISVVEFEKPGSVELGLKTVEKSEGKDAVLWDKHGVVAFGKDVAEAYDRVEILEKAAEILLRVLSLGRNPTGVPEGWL

RAMA = biological target: T2, RAMA (Oryctolagus cuniculus, UniProt P00883); test: aldol addition, HPLC and NMR of products; format: biochemical; details: acceptor; co-substrate DHAP; 20 mM phosphate pH 6.8, 30 °C
T2 construct: gene ALDOA; commercial native enzyme from rabbit muscle (Sigma-Aldrich)
T2 sequence (P00883 2-364): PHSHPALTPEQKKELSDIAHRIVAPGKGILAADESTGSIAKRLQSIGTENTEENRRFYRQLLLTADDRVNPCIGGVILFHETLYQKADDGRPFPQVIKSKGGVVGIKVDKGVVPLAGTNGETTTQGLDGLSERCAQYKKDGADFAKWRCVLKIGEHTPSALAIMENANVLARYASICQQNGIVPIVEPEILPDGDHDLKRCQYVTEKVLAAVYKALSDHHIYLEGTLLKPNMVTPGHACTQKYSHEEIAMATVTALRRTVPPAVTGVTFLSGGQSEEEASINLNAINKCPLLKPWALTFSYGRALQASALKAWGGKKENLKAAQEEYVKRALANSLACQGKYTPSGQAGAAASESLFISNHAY

| SMILES | aldol addition, HPLC and NMR of products (TmRhu-1PA) | aldol addition, HPLC and NMR of products (RAMA) |
| --- | --- | --- |
| Cc1cn(CC=O)c(=O)[nH]c1=O [1a, thyminyl acetaldehyde] | biotransformation with the thymine derivative (1a) and TmRhu-1PA as a biocatalyst |  |
| Nc1ccn(CC=O)c(=O)n1 [1b, cytosyl acetaldehyde] |  | A similar reaction profile was observed when the cytosine derivative |
